Several values for one entry are separate records, joined by “and”; a condition that tells them apart may be missing. Equal values may be shown once. Entries after “also recorded” stand apart in the source; their conditions may differ.
How the values were obtained:
[1] = system: urogenital atrophy in breast cancer patients; details: study of 46 patients; compared to saline; cited from earlier work
[2] = system: human keratinocytes (HaCaT); experiment: Wound-healing (scratch) assay; assay type: cell-based; details: for wound area Basal (0 h): 20 ng/ml wells, immediately after wounding; for wound area Basal (0 h) / % area wound 24 h / % relative Area to Control 24 h / % wound healing 24 h / wound area 24 h: replicates; for wound healing enhanced, compared to the untreated control / Decreased wound area / % area wound 24 h / % relative Area to Control 24 h / % wound healing 24 h / wound area 24 h: 20 ng/ml; for wound healing enhanced, compared to the untreated control: 24 hours; for Decreased wound area: 24 hr
Text: An in vitro scratch assay was used to study cell migration in vitro. [Todaro, G J et al. The initiation of cell division in a contact-inhibited mammalian cell line. J. Cell Physiol. (1965) 66: 325-33]. This method is based on the observation that, upon creation of a new artificial gap or “scratch”, on a confluent cell monolayer, the cells on the edge of the newly created gap will move toward the opening to close the “scratch” until new cell-cell contacts are established. One of the major advantages of this simple method is that it mimics to some extent migration of cell in vivo. For example, removal of part of the endothelium in blood vessels will induce migration of endothelial cells (ECs) into the denuded area to close the wound [Haudenschild, C. et al. Endothelial regeneration. II. Restitution of endothelial continuity. Lab. Invest. (1979) 41: 407-18]. Furthermore, the patterns of migration either as a loosely connected population (e.g., fibroblasts) or as sheets of cells (e.g., epithelial and EECs) also mimic the behavior of these cells during migration in vivo. The scratch assay is particularly suitable to study the regulation of cell migration by cell interaction with extracellular matrix (ECM) and cell-cell interactions.
For the wound-healing assay, HaCaT keratinocytes were seeded overnight in DMEM medium supplemented with 10% fetal bovine serum (FBS) at 80% confluence (190,000 cells per well. The next day, a 2 mm wound was made over the confluent monolayer using a 1 ml pipete tip. Test samples were added to the HaCaT cells, supplemented with 0.5% FBS. The untreated control was 0.5% FBS.
Images were taken before and after 24 hours of treatment, and wound area was quantified using ImageJ software. All data were statistically analyzed.
For seeding cells, cell numbers and viability were determined using Trypan-Blue staining; cells were counted in a Bürker chamber under the microscope. Human keratinocytes (HaCaT cells) were seeded overnight in DMEM medium supplemented with 10% fetal bovine serum (FBS).
Parallel lines were drawn at the bottom of the wells (3 mm separated lines outside the plate). These lines were used as boundaries for scratch images, thus providing an accurate analysis in each well. Cells were seeded at 190,000 cells/well to promote the formation of a monolayer and kept at 37 C for 24 h. Then, 2 mm-wide wounds were made in the confluent monolayer. Wells were washed once with PBS and refilled with DMEM+0.5% FBS. Basal images were taken immediately using a microscope. […] In addition, human epidermal growth factor (hEGF) at 20 ng/ml was included as a positive control, and 0.5% FBS as a basal control.
Plates were placed in the 37° C. incubator and incubated for 24 h to allow the scratch to heal. Microscopic images are shown below. One biological replicate was performed and four technical replicates per condition were used.
Data analysis was performed using ImageJ software. Microscopic images are shown in Results. Statistical analysis (ordinary one-way ANOVA test) was performed to determine the significance between tested samples and basal control.
The percentage of wound area in each well at 24 hr was calculated by dividing the wound area at 24 hr and the wound area immediately after making the wound. The mean value for the four replicates in the Basal Control (untreated) group was obtained and used to normalize each measure in all of the samples and conditions. A bar graph was generated to represent the wound area or wound healing in each of the tested conditions.

[3] = experiment with RS-0198A and RS-0198B

Row | Compound | patients with reduced dyspareunia [1] | wound area Basal (0 h) [2] | wound area Basal (0 h) ([2]; listed as C + EGF) | wound healing enhanced, compared to the untreated control ([2]; experiment with RS012221) | wound healing enhanced, compared to the untreated control [2, 3] | Decreased wound area ([2]; experiment with RS012221) | Decreased wound area [2, 3] | % area wound 24 h [2] | % relative Area to Control 24 h [2] | % wound healing 24 h [2] | wound area 24 h [2] | % area wound 24 h ([2]; listed as C + EGF) | % relative Area to Control 24 h ([2]; listed as C + EGF) | % wound healing 24 h ([2]; listed as C + EGF) | wound area 24 h ([2]; listed as C + EGF) | wound area (result in words) ([2]; 24 hr treatment of HaCaT, compared to the untreated control) | wound healing (result in words) ([2]; 24 h treatment of HaCaT, compared to untreated control, concentrations as in the sentence, listed as hEGF)
1 | CCN(CC)CC(=O)Nc1c(C)cccc1C [lidocaine] | 90% | – | – | – | – | – | – | – | – | – | – | – | – | – | – | – | –
2 | EGF: human epidermal growth factor, positive control at 20 ng/ml | – | 1324098 pixels and 1346138 pixels and 1134400 pixels and 1741659 pixels | 1188450 pixels and 1278864 pixels and 1237384 pixels and 1227903 pixels | 94.0±8.6% | 60.4±15.7% | 94.0±8.6% | 60.4 ± 15.7% | 19.877% and 29.524% and 18.706% and 6.405% | 42.310% and 62.846% and 39.818% and 13.633% | 57.690% and 37.154% and 60.182% and 86.367% | 263185 pixels and 397433 pixels and 212198 pixels and 111545 pixels | 27.291% and 2.058% and 0.000% and 5.244% | 89.630% and 6.758% and 0.000% and 17.222% | 10.370% and 93.242% and 100.000% and 82.778% | 24456 pixels and 0 pixels (2×) and 64389 pixels | significantly decreased wound area | enhanced wound healing; also recorded: boosted wound healing

Source: US20230090691A1, “COMPOSITIONS AND METHODS FOR PROMOTING AND/OR MAINTAINING VAGINOVULVAL AND PERIANAL TISSUE VITALITY AND TISSUE HEALTH” (SPINART, LLC, priority 2021, published 2023)
